Consider 15 compounds from US20250059139A1, “COMPOUNDS FOR TREATMENT OF CANCER” (THE JOHNS HOPKINS UNIVERSITY, priority 2021, published 2025).

Data set [1] has as its system CWR22-RH human prostate cancer PDXs. The data set can be described thus: In vivo growth of CWR22-RH xenografts in castrate NSG male mice. The settings on record: for CWR22-RH Tumor Growth (% inhibition +/− SD): castrate mice treated orally over a 3 week period, 10 mg/kg/d, n = 5/group; for growth inhibitor (GI) activity on CWR22-RH xenografts (SAR summary): in vivo. The text has this:
Prostate Cancer Models. The source, history, and characteristics of the human prostate cancer cell lines and PDXs used, as well as cell culture conditions for their in vitro maintenance and the in vivo protocol for xenograft growth in triple immune-deficient NSG (i.e. NOD.Cg-PrkdcScidIl2rgtmlWji/Szj), adult (>8 week old) male mice obtained from the Sidney Kimmel Comprehensive Cancer Center (SKCCC) Animal Core Facility are described previously (Isaacs 2013; Brennen et al. JCI Insight. 2021, 6(8):e146827; Zhu et al. Oncogene 2020, 39(45): 6935-6949). Similar information concerning the TRAMP-C2 and B6CaP mouse prostate cancers originating in a C57BL/6J male mice are described previously (Foster et al. Cancer Res. 1997, 57: 3325-3330; Simons et al. Oncotarget. 2019, 10(64):6845-6854). In vitro growth curves were determined as described (Isaacs 2013). In vivo growth response to oral daily TasQ (10 mg/kg/d) of TRAMP-C2 mouse prostate cancers was evaluated in C57BL/6J syngeneic wild type vs. NOX-2 vs. iNOS null male mice obtained from Jackson Laboratory (Bar Harbor, ME). Growth response to oral daily TasQ (10 mg/kg/d) of TRAMP-C2 and B6CaP mouse prostate cancers was also evaluated in S100A9 null C57BL′6J male mice obtained from Dmitry Gabrilovich (Wistar Institute). All lines were mycoplasma negative using the MycoSensor PCR Assay kit (Agilent Technologies) and genetically authenticated within the last 6 months using short tandem repeat profiling conducted by the Johns Hopkins Genetic Resource Core Facility. In vitro growth curves were determined as described (Isaacs 2013). Growth response to daily oral TasQ vs. ESATA-20 (both at 10 mg/kg/d) of Myc-CaP-CR mouse prostate cancer was evaluated in syngeneic FVB/NJ castrate male mice from Jackson Laboratory. Animal studies were conducted according to animal protocols approved by Johns Hopkins Animal Care and Use Committee. Tumor volume measurements were as described previously (id.). In vivo experiments were repeated multiple independent times for each model used with 3-5 mice per treatment grouping.
Oral Drug treatment. TasQ at the indicated dose was initially dissolved with equal molar 1 N sodium hydroxide. This solution was diluted with sterile water and the mixture stirred for 1 hr. The pH was then adjusted with 1 N HCl to 8.9 and 200 μL given daily via oral gavage.
Due to these combined effects, maximal growth inhibition of CWR22-RH, a castration-resistant prostate cancer patient-derived xenograft (PDX), is obtained as maintenance therapy with oral daily dosing of ≥5 mg/kg/d (FIG. 1). […] Previous studies documented that in vitro treatment of human prostate cancer cells (LNCaP) with 1-10 μM TasQ rapidly (i.e., ≤1 day) induces the transcription of a series of AHR target genes (e.g., Cyp1a1, Cyp1b1, AHRR, TPARP, GDF15) (Olsson 2010). […]

Data set [2] addresses T1, Human Aryl Hydrocarbon Receptor (AHR) (Homo sapiens, UniProt P35869).
T1 construct: purchased Indigo Biosciences IB06001
T1 sequence (P35869 11-848): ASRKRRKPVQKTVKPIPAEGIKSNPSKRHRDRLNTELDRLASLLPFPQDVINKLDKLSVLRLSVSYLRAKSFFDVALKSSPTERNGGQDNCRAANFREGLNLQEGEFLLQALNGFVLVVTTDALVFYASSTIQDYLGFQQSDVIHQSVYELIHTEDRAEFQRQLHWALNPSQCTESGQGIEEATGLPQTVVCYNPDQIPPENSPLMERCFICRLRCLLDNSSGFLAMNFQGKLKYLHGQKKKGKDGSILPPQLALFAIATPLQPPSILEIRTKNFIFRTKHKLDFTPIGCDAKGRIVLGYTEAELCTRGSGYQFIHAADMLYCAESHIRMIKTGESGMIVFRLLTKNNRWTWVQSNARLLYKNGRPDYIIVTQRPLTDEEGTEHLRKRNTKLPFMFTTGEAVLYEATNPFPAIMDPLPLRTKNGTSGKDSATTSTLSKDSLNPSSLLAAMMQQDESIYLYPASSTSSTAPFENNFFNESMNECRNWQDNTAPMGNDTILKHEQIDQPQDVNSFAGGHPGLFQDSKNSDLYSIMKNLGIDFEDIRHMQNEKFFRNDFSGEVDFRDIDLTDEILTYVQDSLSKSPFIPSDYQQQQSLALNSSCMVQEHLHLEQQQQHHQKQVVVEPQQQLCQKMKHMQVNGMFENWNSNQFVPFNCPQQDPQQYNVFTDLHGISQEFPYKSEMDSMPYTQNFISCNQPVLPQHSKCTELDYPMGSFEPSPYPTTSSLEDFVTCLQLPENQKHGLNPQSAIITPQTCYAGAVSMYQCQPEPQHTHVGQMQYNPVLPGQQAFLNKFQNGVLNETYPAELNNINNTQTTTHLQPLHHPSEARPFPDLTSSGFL
Briefly: Human AHR reporter assay (cell-based  luciferase reporter gene assay). Particulars: n = 4 independent assays/analog; read-out: AHR Agonist Response [EC50] (nM +/−SD). A general note: A reporter such as luciferase makes a cellular process visible.
Source text: AHR Agonist Assay. Human Aryl Hydrocarbon Receptor (AHR) Reporter Assay System [Indigo Biosciences (State College, Pa) Cat #IB06001] was used as per the manufacturer's protocol.
Thus, a series of quinoline-3-carboxamide analogs were synthesized focusing upon adduct changes at the aniline-N. These analogs were synthesized as described in Example 1, and were initially screened for their AHR agonist activity using the in vitro human cell-based ARE-driven luciferase reporter gene assay (Table 3).

For data set [3], the target named is T2, fl-HDAC4 (wild-type) (Homo sapiens, UniProt P56524).
T2 construct: Full-length (fl) [A.A. 1-1082] recombinant human histone deacetylase 4 (rhHDAC4) protein; FLAG (N); GST (given as 'with or without'); made in house; host or cells: HEK293-T
The data set can be described thus: SPR binding analysis TasQ / fl-HDAC4. Particulars: compound at >30 μM in solution, Zn2+ present. As for the experimental part: Surface Plasmon Resonance (SPR) Binding Analysis. SPR analysis was performed on the Biacore 3000™ system using CM5 sensor chips, certified buffers (HBS-P—10 mM HEPES, 0.15 M NaCl, pH 7.4, containing 0.005% v/v Surfactant P; HBS-EP-HBS-P with 3 mM EDTA) and reagents for immobilization and surface regeneration from Biacore, GE Healthcare, Uppsala Sweden. Evaluation of sensorgrams was performed using the BIA-evaluation Software version 4.1 and GraphPad Prism 4. Buffer of protein reagents were changed to HBS-P on Zeba spin desalting columns (Thermo Scientific) prior to being used in SPR analysis (Isaacs 2013).
A. Binding of wild-type and mutant forms of HDAC4 to immobilized TasQ. TasQ (ABR-215050; mol wt 406.4) was dissolved as a 40 mM solution in water with 1.5 equivalents of NaOH. TasQ with an amino-linker [i.e. —(CH2)2O(CH2)2—NH2](ABR-225180) in amide nitrogen position was used for amine coupling on to a Biacore CM5 sensor chip. A 1 mg/mL solution of ABR-225180 in HBS-P buffer was prepared and immobilized on a CM5 chip by injection at a flow rate of 5 or 10 μL/min until a stable response level was reached. Interaction of various HDAC4 forms with immobilized TasQ was studied by injection over this surface in HBS-P buffer containing 10 or 20 μM ZnCl2. Bound HDAC4 was removed by a pulse of 3 mM EDTA in HBS-P or 0.5 to 6.25 mM NaOH in water. In a second series of experiments, the ability of TasQ in solution to displace this binding was studied by pre-incubation of HDAC4 with TasQ as competitor.
B. Binding of TasQ to immobilized HDAC4 and NCoR1. Different variants of HDAC4 (full-length wild-type and mutant forms and the truncated protein) and full-length NCoR1 were immobilized on a CM5 chip using random amine coupling. Briefly, proteins were dissolved in 10 mM sodium acetate buffer at pH 5.0 or 5.5 and immobilized to the aimed level using the standard protocol from GE Healthcare. Serially diluted TasQ in HBS-P buffer with 10 or 20 μM Zn was injected (for 2 or 3 min at a flow rate of 30 μl/min) either directly or after a 1st injection of 1 mM DTT to reduce cysteines in the zinc conformation site in HDAC4. Regeneration was made with a short pulse of HBS-EP.
To evaluate the conformational requirements for TasQ's binding to HDAC4, surface plasmon resonance (SPR) analysis was utilized. To maximize conformational flexibility, TasQ is immobilized onto the surface of a Biacore CM5 sensor chip via an amino-linker [i.e. —(CH2)2—O—(CH2)2—NH2] in its amide nitrogen position.
By comparison, Linomide even at >30 μM in solution binds only 10-15% of the immobilized fl-HDAC4 protein despite the presence of Zn^+2 (FIG. 14). […] The fact that the KD for binding of soluble TasQ to immobilized fl-HDAC4 is higher than the KD for binding of soluble fl-HDAC4 with immobilized TasQ is predictable. This is because the conformational dynamics of fl-HDAC4 protein immobilized on the chip are more restrictive due to the multiple random amine coupling than the conformational dynamics of TasQ immobilized via a single amino-linker.
To address this possibility, a competitive binding assay was developed based upon the ability of TasQ in solution to compete with immobilized TasQ on the SPR-chip for binding to fl-HDAC4.
A general note: SPR reads the build-up and loss of mass on a sensor chip optically.

The test system of data set [4] is mCRPC patients. The settings on record: human, in vivo; cited from earlier work.

T2 sequence (P56524 whole entry): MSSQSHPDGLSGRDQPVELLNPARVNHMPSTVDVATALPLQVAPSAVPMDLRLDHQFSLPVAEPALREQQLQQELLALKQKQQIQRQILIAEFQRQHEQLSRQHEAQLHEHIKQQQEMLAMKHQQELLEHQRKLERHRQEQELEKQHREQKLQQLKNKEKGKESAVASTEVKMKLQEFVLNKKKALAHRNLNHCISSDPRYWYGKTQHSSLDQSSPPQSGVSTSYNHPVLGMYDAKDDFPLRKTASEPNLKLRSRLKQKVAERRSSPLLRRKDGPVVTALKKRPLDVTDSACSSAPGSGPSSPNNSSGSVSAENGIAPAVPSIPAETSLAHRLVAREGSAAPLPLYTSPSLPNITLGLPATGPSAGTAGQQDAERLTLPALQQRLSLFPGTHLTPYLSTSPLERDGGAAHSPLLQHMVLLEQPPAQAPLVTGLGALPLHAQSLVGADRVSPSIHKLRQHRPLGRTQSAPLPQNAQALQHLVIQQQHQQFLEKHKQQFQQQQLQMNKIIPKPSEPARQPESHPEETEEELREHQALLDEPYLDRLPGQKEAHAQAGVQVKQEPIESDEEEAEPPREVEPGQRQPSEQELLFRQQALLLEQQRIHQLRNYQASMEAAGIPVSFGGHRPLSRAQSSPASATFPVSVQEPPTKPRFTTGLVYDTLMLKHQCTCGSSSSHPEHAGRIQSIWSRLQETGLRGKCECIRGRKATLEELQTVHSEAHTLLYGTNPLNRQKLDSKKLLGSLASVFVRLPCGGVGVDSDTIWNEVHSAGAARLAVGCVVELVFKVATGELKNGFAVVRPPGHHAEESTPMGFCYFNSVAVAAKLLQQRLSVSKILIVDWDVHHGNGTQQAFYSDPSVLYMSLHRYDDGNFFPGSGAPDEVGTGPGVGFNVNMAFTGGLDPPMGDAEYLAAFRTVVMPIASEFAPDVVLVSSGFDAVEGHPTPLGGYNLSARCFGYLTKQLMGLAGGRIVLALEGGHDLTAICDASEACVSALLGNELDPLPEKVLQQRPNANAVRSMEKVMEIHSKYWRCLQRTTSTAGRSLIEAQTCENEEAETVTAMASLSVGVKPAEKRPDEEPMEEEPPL

With `COc1cccc2c1c(O)c(C(=O)Nc1ccc(C(F)(F)F)cc1)c(=O)n2C` [ESATA-4], in data set [1], the “CWR22-RH Tumor Growth (% inhibition +/− SD)” value is 86 +/− 9% and the “growth inhibitor (GI) activity on CWR22-RH xenografts (SAR summary)” value (“growth inhibitor (GI) activity” for short) was “high GI activity”. Moreover, the EC50 in data set [2] was 0.5 nM.

On to `CCOc1c(C(=O)N(c2ccc(C(F)(F)F)cc2)C2CCCCC2)c(=O)n(C)c2cccc(OC)c12` [ESATA-25], for which, in data set [1], the “CWR22-RH Tumor Growth (% inhibition +/− SD)” value is less than 10% and the “growth inhibitor (GI) activity” value was “no GI activity”. Besides, in data set [2], the EC50 is 10500 nM.

As for `COc1cccc2c1c(O)c(C(=O)N(CCOCc1ccccc1)c1ccc(C(F)(F)F)cc1)c(=O)n2C` [ESATA-14], in data set [1], the “CWR22-RH Tumor Growth (% inhibition +/− SD)” value is less than 10% and the “growth inhibitor (GI) activity” value was “no GI activity”. For the same compound, the EC50 in data set [2] was 1100 nM.

As to `COc1cccc2c1c(OCCNC(=O)OC(C)(C)C)c(C(=O)N(c1ccc(C(F)(F)F)cc1)C1CCCCC1)c(=O)n2C` [ESATA-26], in data set [1], the “CWR22-RH Tumor Growth (% inhibition +/− SD)” value is less than 10% and the “growth inhibitor (GI) activity” value is “no GI activity”. The EC50 in data set [2] is more than 50000 nM.

Take `COc1cccc2c1c(O)c(C(=O)N(c1ccccc1)C(C)C)c(=O)n2C` [ESATA-27]: in data set [1], the “CWR22-RH Tumor Growth (% inhibition +/− SD)” value was less than 10%. The EC50 in data set [2] was 850 nM.

On to `CCCCCCCN(C(=O)c1c(O)c2c(OC)cccc2n(C)c1=O)c1ccc(C(F)(F)F)cc1` [ESATA-11], for which the EC50 in data set [2] came to 50 nM.

With `C[C@]12CC[C@H](O)CC1=CC[C@@H]1[C@@H]2CC[C@]2(C)C(c3cccnc3)=CC[C@@H]12` [Abiraterone], in data set [1], the “CWR22-RH Tumor Growth (% inhibition +/− SD)” value was less than 10%. Further, in data set [2], the EC50 is more than 50000 nM.

For the compound `COc1cccc2c1c(O)c(C(=O)N(c1ccc(C(F)(F)F)cc1)C1CCC(C(F)(F)F)CC1)c(=O)n2C` (stereo not drawn) [ESATA-22], in data set [1], the “CWR22-RH Tumor Growth (% inhibition +/− SD)” value is on record as less than 10% and the “growth inhibitor (GI) activity” value is “no GI activity”. Also, the EC50 in data set [2] is 12000 nM.

Regarding `COc1cccc2c1CC(C(=O)N(C)c1ccc(C(F)(F)F)cc1)C(=O)N2C` (stereo not drawn) [ESATA-5], the EC50 in data set [2] came to 300 nM.

As for `COc1cccc2c1c(O)c(C(=O)N/N=C/c1ccc(C(F)(F)F)cc1)c(=O)n2C` [ESATA-24], the EC50 in data set [2] was 800 nM.

Turning to `COc1cccc2c1c(O)c(C(=O)N(c1ccccc1)C1CCCCC1)c(=O)n2C` [ESATA-28], the “CWR22-RH Tumor Growth (% inhibition +/− SD)” value in data set [1] is recorded as less than 10%. Moreover, the EC50 in data set [2] came to 1300 nM.

Regarding `COC(=O)c1c(O)c2c(OC)cccc2n(C)c1=O` [ESATA-2], the “growth inhibitor (GI) activity” value in data set [1] is on record as “no GI activity”. Moreover, the EC50 in data set [2] was more than 100000 nM.

With `COc1cccc2c1c(O)c(C(=O)N(c1ccc(C(F)(F)F)cc1)C(C)C)c(=O)n2C` [ESATA-30], in data set [1], the “CWR22-RH Tumor Growth (% inhibition +/− SD)” value is given as less than 10% and the “growth inhibitor (GI) activity” value is listed as “no GI activity”. Also, in data set [2], the EC50 was determined as 1400 nM.

As for `CN(C(=O)c1c(O)c2ccccc2n(C)c1=O)c1ccccc1` [Linomide, roquinimex], the “fraction of the immobilized fl-HDAC4 protein bound” value in data set [3] is reported as 10-15%. The “adverse events in Phase III clinical trials” value in data set [4] is “several cases of pericarditis and neuropathy”.

`COc1cccc2c1c(O)c(C(=O)N(Cc1ccccc1)c1ccc(C(F)(F)F)cc1)c(=O)n2C` [ESATA-18]: the “CWR22-RH Tumor Growth (% inhibition +/− SD)” value in data set [1] is recorded as 50 +/− 18%. Also, the EC50 in data set [2] stood at 10700 nM.
